In US20160281133A1, “STABILIZATION AND ISOLATION OF EXTRACELLULAR NUCLEIC ACIDS” (QIAGEN GMBH, priority 2013, published 2016):
Where a SMILES comes first, the peptide text is derived from it. The star is where a group is joined. Cbz = O=C(OCc1ccccc1)*; CH2F = FC*

What was measured:
whole blood samples [1] = experiment: DNA size distribution by chip gel electrophoresis (blood cell stability/DNA release); format: cell-based, human; settings: 20 μM in 10 ml K2E blood; day 3 and day 7
Experimental: To separate the blood plasma from the whole blood, the blood samples were centrifuged for 15 min at 5000 rpm, and the obtained plasma samples were again centrifuged for 10 min at 16.000×g at 4° C.
The circulating, extracellular nucleic acids were purified from the obtained plasma samples using the QIAamp® Circulating NA Kit (QIAGEN, according to the handbook). In brief: • 10 ml sample input; • lysis: 1 ml Proteinase K and 8 ml Buffer ACL (QIAGEN) • binding: 18 ml Buffer ACB (QIAGEN) • wash-steps: unchanged and according to handbook • elution in 60 μl Buffer AVE (QIAGEN)
1.3.1 Measurement of the blood cell stability/DNA release by the determination of DNA size distribution using a chip gel electrophoresis (2100 Bioanalyzer; Agilent Technologies; Inc., USA) according to manufacturer's instruction (see handbook Agilent DNA 7500 and DNA 12000 Kit Guide), but 1.5 μl instead of 1 μl sample were transferred to the wells.
Each tested caspase inhibitor was added to whole blood samples (20 μM end concentration in 10 ml blood; blood was collected into Vacutainer K2E Tubes; BD). The whole blood sample was processed as described in section 1 (plasma preparation and nucleic acid isolation).
The eluted circulating cell-free DNA was separated by size using chip gel electrophoresis (for details on the method see above). […]

whole blood samples [2] = experiment: 18S DNA duplex real time PCR assay, increase of DNA in plasma of stored blood, example 5; format: cell-based, human; settings: 20 μM caspase inhibitor in whole blood; storage at RT
[3] = in DMSO (highest concentration listed in the cell); cited from earlier work

In the case of `COC(=O)C[C@H](NC(=O)[C@H](C)NC(=O)[C@@H](NC(=O)OCc1ccccc1)C(C)C)C(=O)CF` [Z-Val-Ala-Asp(OMe)-FMK] (Cbz-Val-Ala-Asp(OMe)-CH2F), the “ladder-like pattern of bands (release and fragmentation of genomic DNA) compared to controls” value (whole blood samples [1]) is listed as “reduced ladder-like pattern”, the “increase of DNA from day 0 to day 3 or 7” value (whole blood samples [2]) is listed as “more prominent on day 7” and the solubility [3] is listed as 20 mM, add 107 μl DMSO 10 mM, add 214 μl DMSO 5 mM, add 428 μl DMSO.
